# Reference: US20010012631A1, “Plant clonal lines and plants having elevated secondary metabolite levels” (University of Massachusetts Medical Center, a Massachusetts …, priority 1997, published 2001)
# Like-named read-outs stand apart in the source and are kept apart here.
# Legend:
# [1] = test system: rosemary clonal line R-15; assay: RA content of shoot propagules, rosemary clonal line R-15; format: cell-based; conditions: 30 to 45 days
# Description: (§1) Samples of Pseudomonas-treated and untreated control shoots from each line were assayed for rosmarinic acid content and proline content. Rosmarinic acid was extracted from 50 mg of fresh shoot tissue using 2 ml of 50% (v/v) methanol and incubating for 1 hour at 55° C. One ml of the methanol extract was diluted 1:18 and the absorbance of the diluted extract was measured at 333 nm in a Genesys spectrophotometer (Spectronic Instruments, Rochester, N.Y.). The concentration of RA in the extract was calculated using an extinction coefficient of ε333=19,000 τmol^−1cm^−1. Values for the concentration of RA for each treatment/clonal line shown in the Tables and Figures of this application are the average of at least 5 separate extracts. Total rosmarinic acid content was expressed as % g/g fresh weight (FW) of tissue.
# (§2) Three clonal thyme lines and five rosemary clonal lines were isolated and maintained in culture as described in U.S. application Ser. No. 08/771,241, filed Dec. 20, 1996 and incorporated herein by reference.
# (§3) Individual shoot propagules of each clonal line were transferred to half-strength hormone-free MS media supplemented with A2C and cultured for 30 to 45 days. RA content and morphological abnormalities were determined at the end of the culture period as described in Example 1.
# [2] = test system: phenylalanine ammonia lyase (PAL); format: cell-based, oregano; conditions: A2C 50 μM
# Description: These enzymes are involved in synthesis of phenolic secondary metabolites (PAL) and in the pentose phosphate pathway (G-6-PDH).
# One gm fresh weight of leaves were ground to a powder in liquid nitrogen, and homogenized in 0.1 M Tris-HCl buffer (pH 7.4) containing 1 mM phenylmethyl-sulfonyl fluoride (PMSF), 0.1% polyvinylpyrrolidone (PVP, to remove phenolics and polysaccharides) and 1 mM dithiothreitol (DTT). Extracts were centrifuged at 15,000×g for 20 minutes, and supernatants (5 ml) were partially purified through a PD 10 column (Pharmacia, Inc., NJ). Protein was eluted from the column using 5 ml of 0.1 M Tris-HCl, pH 8.5, which is close to the pH optimum of plant glucose-6-phosphate dehydrogenase (pH 8.0-8.2) and PAL (pH 8.8).
# Phenylalanine ammonia-lyase (PAL) activity in the protein extract was assayed based on the conversion of L-phenylalanine (6.67 mM) to trans cinnamic acid. The reaction was carried out at 30° C. in borate buffer (33 mM), pH 8.8 with L-phenylalanine as substrate and the change in absorbance at 290 nm was measured. PAL was expressed as nanomoles of trans-cinnamic acid formed per minute per milligram of protein. Protein was determined by the Bradford dye-binding method using bovine serum albumin as a standard.
# [3] = test system: oregano clonal lines; assay: Selection for A2C tolerance: total phenolic content of about 100 oregano clonal lines; format: cell-based; conditions: small fraction of about 100 oregano lines, 200 μM A2C, 30 days
# Description: Total phenolic content can be measured, for example, using Folin-Ciocalteu reagent essentially as described in Chandler and Dodds, Plant Cell Rep. 2:105-108 (1983) and Shetty, K., Ph.D., Thesis, University of Idaho (1989). The tissue is disrupted in 95% ethanol and centrifuged to remove particulate matter. An aliquot of the ethanol supernatant is mixed with an equal volume of Folin-Ciocalteu reagent, and incubated at 25° C. A 5% sodium carbonate can be added to stabilize color development. Absorbance of the solution is measured at 725 nm is a spectrophotometer. A standard curve is developed using various concentrations of gallic acid in 95% ethanol. Absorbance values are converted to mg total phenolics/g fresh weight (FW) tissue from the standard curve.
# About 100 oregano clonal lines are initiated as described in Example 1. Lines are maintained on MS medium containing BAP as described in Example 1. At the end of a subculture cycle, 50 shoot propagules of each clonal line are transferred to half-strength hormone-free MS medium containing 200 μM A2C. Propagules are then cultured for 30 days as described in Example 1, and assayed for RA content as described in Example 1. Total phenolic content is measured as described in U.S. application Ser. No. 08/771,241, filed Dec. 20, 1996, incorporated herein by reference.
# [4] = test system: oregano clonal line 0-5; assay: Morphological abnormalities / tolerance of cultured shoots, oregano line 0-5; format: cell-based; conditions: line 0-5, 200 μM A2C
# Description: (§4) Pseudomonas tolerance of Pseudomonas-treated shoots was determined by visual observation with a stereomicroscope (Olympus-SZ40, Tokyo, Japan) at a magnification of 34X. Cultured shoots were evaluated for morphological abnormalities, including malformation, necrosis, and chlorophyll deficiency. The response of individual tissue propagules to Pseudomonas contact was similar within each line, i.e., there was little or no variation among tissue propagules within each line.
# Shoot tissue from oregano lines 0-4 and 0-5 was also cultured in the presence of A2C for 30 days. Samples of treated and control shoots were then assayed for RA content on a fresh weight basis and for morphological abnormalities.
# (§5) Individual shoot tissue propagules of each clonal line were transferred to half strength hormone-free MS medium supplement with A2C. RA content and morphological abnormalities were determined as described in Example 1.
# [5] = test system: regenerated plants of oregano clone 0-1 and five tolerant clones; assay: Field treatment: total phenolic content of leaf tissue of regenerated oregano plants; format: in vivo; conditions: field plants sprayed with solution of A2C about 50 μm, Nonidet P40, EMC about 0.5% w/v; leaf tissue after 7 days; fresh weight and dry weight basis
# Description: (§6) About 100 regenerated plants of oregano clone 0-1, and the five tolerant clones of Example 7 are removed from a greenhouse, and planted outdoors in a field during the spring, and summer growing season. Plantings are carried out using a randomized block design. Plants are fertilized weekly, but are not irrigated. About 7 days before flower emergence, half of the plants of each line are sprayed with an aqueous solution comprising A2C, Nonidet P40™, and EMC prepared from strain F. A2C is present at about 50 μm, and EMC is present at about 0.5% w/v. Each plant receives about 1 to 2 ml on the upper surface of the leaves. The remaining control plants are treated by spraying an aqueous solution that contains no A2C and no EMC. Spraying is carried out such that there is little or no carryover to adjacent plants.
# (§7) After 7 days, leaf tissue from A2C-treated and control plants is harvested, and analyzed for total phenolic content, and RA content as described in Example 7. […] The plant-to-plant variation among A2C-treated plants of each line is about 5% to about 15%.
# [6] = test system: rosemary clonal line R-1; assay: Morphological abnormalities / tolerance of cultured shoots, rosemary line R-1; format: cell-based; conditions: rosemary line R-1, 200 μM A2C
# Description: as §4, §3
# [7] = test system: thyme clonal line T-12; assay: RA content of shoot propagules, thyme clonal line T-12; format: cell-based; conditions: 30 to 45 days, ± SD
# Description: as §1, §2, §3
# [8] = test system: regenerated plants of oregano clone 0-1 and five tolerant clones; assay: Field treatment: RA content of leaf tissue of regenerated oregano plants; format: in vivo; conditions: field plants sprayed with solution of A2C about 50 μm, Nonidet P40, EMC about 0.5% w/v; leaf tissue after 7 days; fresh weight and dry weight basis
# Description: as §6, §7
# [9] = test system: oregano clonal line OM-8; assay: Morphological abnormalities / tolerance of cultured shoots, oregano line OM-8; format: cell-based; conditions: line OM-8, 200 μM A2C
# Description: as §4, §5
compound,measurement,setting,value
"O=C(O)C1CCN1 (stereo not drawn) [A2C, azetidine-2-carboxylic acid]",RA Levels,"[1]; rosemary R-15, A2C 100 μM, ± SD",9.4 ± 0.6 mg/g FW
same,RA Levels,"[1]; rosemary R-15, A2C 200 μM",inhibited
same,PAL specific activity,[2]; 10 days of culture treatment,2.83 nanomoles cinnamate/min/mg protein
same,PAL specific activity,[2]; 25 days of culture treatment,2.64 nanomoles cinnamate/min/mg protein
same,increase in total phenolic content on a fresh weight basis vs tissue cultured in the absence of A2C,[3],at least 2 fold
same,survival of line in culture,[4],killed
same,total phenolics vs control tissue,[5],at least 2 fold
same,survival of line in culture,[6],killed
same,RA Levels,"[7]; thyme T-12, A2C 100 μM",4.1 ± 0.5 mg/g FW
same,RA Levels,"[7]; thyme T-12, A2C 200 μM",5.1 ± 0.5 mg/g FW
same,RA vs control tissue,[8],at least 2 fold
same,survival of line in culture,[9],killed
